Laboratory results published in paper PMC11084348, “Characterization of Phenolic Compounds in Extra Virgin Olive Oil from Granada (Spain) and Evaluation of Its Neuroprotective Action” (International Journal of Molecular Sciences, 2024).

How the values were obtained:
[1] = molecular target: T1, acetylcholinesterase from Electrophorus electricus (Electrophorus electricus, UniProt O42275); assay: AChE inhibition assay (Ellman, spectrophotometric); format: biochemical; conditions: for IC50: 5 concentrations of standard, linear regression of dose-response curve
T1 construct: purchased Merck (Madrid, Spain)
T1 sequence (O42275 24-633): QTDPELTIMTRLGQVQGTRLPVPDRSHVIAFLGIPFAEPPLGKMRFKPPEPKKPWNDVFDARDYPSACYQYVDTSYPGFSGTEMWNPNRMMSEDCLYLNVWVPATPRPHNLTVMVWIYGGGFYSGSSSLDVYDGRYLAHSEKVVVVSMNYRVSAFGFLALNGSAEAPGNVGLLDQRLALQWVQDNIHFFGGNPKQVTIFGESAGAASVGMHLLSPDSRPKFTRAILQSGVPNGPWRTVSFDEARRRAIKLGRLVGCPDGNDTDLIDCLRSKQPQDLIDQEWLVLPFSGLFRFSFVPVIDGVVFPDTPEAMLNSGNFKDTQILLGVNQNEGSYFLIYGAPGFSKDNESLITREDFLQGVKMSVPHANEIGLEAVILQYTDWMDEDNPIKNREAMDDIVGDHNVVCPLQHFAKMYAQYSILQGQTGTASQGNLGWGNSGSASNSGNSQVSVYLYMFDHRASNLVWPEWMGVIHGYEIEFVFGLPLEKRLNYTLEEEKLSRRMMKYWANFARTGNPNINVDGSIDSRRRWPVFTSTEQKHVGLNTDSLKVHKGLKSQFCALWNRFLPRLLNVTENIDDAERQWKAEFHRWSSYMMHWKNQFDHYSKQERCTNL
From the text: For the COX-2 assay, a COX-2 Inhibitor Screening Kit from Merck (Madrid, Spain) was purchased. For the analysis of AChE inhibition, acetylcholinesterase from Electrophorus electricus (lyophilized powder, 500 U), Base Trizma® (99.9% purity), chloridric acid (37%), Ellman Reactive (5,5′-dithiobis-(2-nitrobenzoic) acid, DTNB, 98% purity), acetylthiocholine iodide (≥98% purity), and physostigmine salicylate were purchased from Merck (Madrid, Spain). In both assays, a spectrophotometer from BioTek Synergy from Agilent Technologies (Santa Clara, CA, USA) was used.
AChE inhibitory activity was measured using a spectrophotometric assay described by Ellman et al. with slight modifications. First, in a 96-well plate, the AChE enzyme (10 mU mL^−1) (dissolved in 50 mM Tris-HCl buffer, pH 8.0) was incubated with the DTNB (150 μM) and 12 μL aliquots of the corresponding EVOO extracts in a final reaction volume of 250 μL. In addition, the inhibition control (physostigmine), the standards Ol, Lut, and Hyty, and the positive control of AChE activity (substituting the extracts/standards by the solvent of the extracts: ethanol:water (1:1, v/v) were tested. After 15 min of incubation at 30 °C, the substrate (acetylthiocholine iodide 150 μM, ATCh) was added, and AChE activity was determined by measuring the increase in absorbance reading at 405 nm for 15 min at 30 °C in a spectrophotometer (BioTek Synergy, Agilent Technologies, Santa Clara, CA, USA).
The AChE inhibitory activity of the EVOO extracts was expressed as a percentage of inhibition with respect to the positive activity control, indicating the average value obtained by analyzing the 3 extraction replicates obtained from each EVOO extract and analyzing them in duplicate. IC50, the concentration of a standard bioactive compound capable of inhibiting 50% of AChE activity, was determined by measuring 5 different concentrations of the standard compound in the reaction medium and interpolating in the linear regression of the dosis-response curve.

COX-2 = molecular target: T2, COX-2 (Homo sapiens, UniProt P35354); assay: biochemical; conditions: 5 concentrations of standard, linear regression of dose-response curve
T2 construct: purchased Merck (Madrid, Spain)
T2 sequence (P35354 18-604): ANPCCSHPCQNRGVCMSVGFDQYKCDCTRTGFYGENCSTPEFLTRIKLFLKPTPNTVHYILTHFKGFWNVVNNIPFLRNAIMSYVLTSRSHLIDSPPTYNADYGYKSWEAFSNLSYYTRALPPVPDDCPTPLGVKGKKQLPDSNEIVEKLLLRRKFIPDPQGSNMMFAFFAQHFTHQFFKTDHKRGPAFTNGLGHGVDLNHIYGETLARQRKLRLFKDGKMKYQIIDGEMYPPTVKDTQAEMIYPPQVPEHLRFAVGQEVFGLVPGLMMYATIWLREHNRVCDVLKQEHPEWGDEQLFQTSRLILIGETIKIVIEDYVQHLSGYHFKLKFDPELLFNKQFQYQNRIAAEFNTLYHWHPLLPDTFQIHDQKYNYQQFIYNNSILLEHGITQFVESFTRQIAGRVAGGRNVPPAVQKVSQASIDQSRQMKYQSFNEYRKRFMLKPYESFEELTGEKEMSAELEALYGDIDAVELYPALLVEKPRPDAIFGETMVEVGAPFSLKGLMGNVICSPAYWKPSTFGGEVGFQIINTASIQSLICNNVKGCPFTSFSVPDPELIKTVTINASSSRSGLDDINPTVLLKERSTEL
Description: For the COX-2 assay, a COX-2 Inhibitor Screening Kit from Merck (Madrid, Spain) was purchased. […] In both assays, a spectrophotometer from BioTek Synergy from Agilent Technologies (Santa Clara, CA, USA) was used.
The COX-2 assay was performed using the COX fluorescent inhibitor assay kit with slight modifications and measured spectrophotometrically (BioTek Synergy, Agilent Technologies, Santa Clara, CA, USA). EVOO extracts were diluted (1/200) in ethanol:water (1:1, v/v). Briefly, the assay was carried out in a 96-well plate, in which 10 μL of diluted EVOO extracts and 80 μL of the reaction mix (containing the cofactor, the probe, and the COX-2 enzyme) were added. […] EVOO extracts were analyzed in duplicate.

| SMILES | IC50 [1] [µM] | IC50 (COX-2) [µM] | inhibition at 0.025 µM ([1]; 0.025 µM of physostigmin in 250 μL of medium reaction containing 2.5 mU of AChE) [%] |
| --- | --- | --- | --- |
| OCCc1ccc(O)c(O)c1 [Hyty, hydroxytyrosol] | 328 | 10.8 | – |
| CNC(=O)Oc1ccc2c(c1)[C@]1(C)CCN(C)[C@@H]1N2C [Physostigmin, physostigmine salicylate] | – | – | 48.5 ± 1.69 |
| O=c1cc(-c2ccc(O)c(O)c2)oc2cc(O)cc(O)c12 [Lut, luteolin] | 145 | – | – |
| C/C=C1/[C@H](O[C@@H]2O[C@H](CO)[C@@H](O)[C@H](O)[C@H]2O)OC=C(C(=O)OC)[C@H]1CC(=O)OCCc1ccc(O)c(O)c1 [Ol, oleuropein] | 417 | 9.65 | – |
